The text below walks through data of patent publication US20230158025A1 (UNIVERSITY OF UTAH RESEARCH FOUNDATION, priority 2020, published 2023).

The target in one data set is recombinant human GALK1 (Homo sapiens, UniProt P51570). Briefly: hGALK1 biochemical activity assay (Kinase-Glo Plus, ATP depletion). A digest of the protocol: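 Recombinant human or mouse GALK1 (5 nM, with 100 μM galactose, in the added enzyme solution) was run with ATP (35 μM in the substrate solution) in HEPES pH 8.0 buffer. Compounds were tested at 11 1/3-step concentrations from 57.4 μM to 0.97 nM. After 1 h at room temperature, remaining ATP was read by Kinase-Glo Plus luminescence.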

In another data set the target is recombinant mouse GALK1 (Mus musculus, UniProt Q9R0N0). Put plainly: mGALK1 biochemical activity assay (Kinase-Glo Plus, ATP depletion). A digest of the protocol:
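Recombinant GALK1 (5 nM) with 100 μM galactose; GALK1 turnover read as ATP depletion by Kinase-Glo Plus luminescence. Reaction ran 1 h at room temperature before detection reagent was added.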
For orientation: Kinase-Glo measures the ATP left after a reaction by luminescence.

The nature of a further data set: PAMPA permeability. The settings on record: PAMPA. A general note: PAMPA measures passive passage across an artificial lipid membrane.
Data set [1] can be described thus: aqueous kinetic solubility. The settings on record: aqueous kinetic solubility.
A short description of data set [2]: rat microsomal stability (RLM). The conditions noted are these: microsomal stability half-life.
The mark [3] stands for this setting: recombinant human GALK1, Kinase-Glo Plus ATP depletion, read-out: hGALK.
Setting [4] is: recombinant mouse GALK1, Kinase-Glo Plus ATP depletion, read-out: mGALK.
[5] abbreviates: Tables 2-15, 35 μM ATP, 100 μM galactose, 1 h, bracketed figure after some values (e.g. −1.2) is undefined and not reported, read-out: hGALK IC50.
The mark [6] stands for this setting: Tables 2-15, 35 μM ATP, 100 μM galactose, 1 h, bracketed figure after some values is undefined and not reported, read-out: mGALK IC50.

SMILES strings stand for the structures. Where two headings read alike, the source gives them in different places.

Sequence of recombinant human GALK1 (P51570 whole entry): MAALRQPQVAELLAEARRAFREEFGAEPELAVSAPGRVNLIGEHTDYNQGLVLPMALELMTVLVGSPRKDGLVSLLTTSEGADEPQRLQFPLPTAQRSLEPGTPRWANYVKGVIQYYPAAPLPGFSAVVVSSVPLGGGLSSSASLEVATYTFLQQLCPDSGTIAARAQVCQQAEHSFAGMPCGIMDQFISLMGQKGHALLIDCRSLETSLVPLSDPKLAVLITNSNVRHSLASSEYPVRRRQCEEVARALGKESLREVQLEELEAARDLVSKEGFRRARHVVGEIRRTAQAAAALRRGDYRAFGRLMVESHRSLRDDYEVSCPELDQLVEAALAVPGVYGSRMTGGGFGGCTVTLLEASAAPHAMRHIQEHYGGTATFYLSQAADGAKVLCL
Sequence of recombinant mouse GALK1 (Q9R0N0 whole entry): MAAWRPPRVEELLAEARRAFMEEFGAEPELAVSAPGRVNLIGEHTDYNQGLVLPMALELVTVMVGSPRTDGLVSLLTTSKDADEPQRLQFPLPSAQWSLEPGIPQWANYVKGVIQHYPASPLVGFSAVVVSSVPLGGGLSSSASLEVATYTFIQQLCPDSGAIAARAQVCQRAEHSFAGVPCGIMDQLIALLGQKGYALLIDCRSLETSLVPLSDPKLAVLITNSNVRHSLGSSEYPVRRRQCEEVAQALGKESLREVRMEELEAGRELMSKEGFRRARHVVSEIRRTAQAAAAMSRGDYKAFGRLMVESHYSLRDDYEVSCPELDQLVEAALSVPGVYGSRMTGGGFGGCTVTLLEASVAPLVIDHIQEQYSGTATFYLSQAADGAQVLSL

Turning to `CC1=C(C(=O)NCc2cnn(C)c2)C(c2ccc(Cl)cc2Cl)N=C(Nc2nc3cccc(N)c3o2)N1` (centres unmarked) [Compound 123, 2-((7-aminobenzo[d]oxazol-2-yl)amino)-4-(2,4-dichlorophenyl)-N-((1-methyl-1H-pyrazol-4-yl)methyl)-6-methyl-1,4-dihydropyrimidine-5-carboxamide], the IC50 at recombinant human GALK1 (setting [3]) is 1090 nM; at recombinant mouse GALK1 (setting [4]), 6.85 µM. In addition, the “Perm. (1 × 10^−6 cm/sec)” value in the data set “PAMPA permeability” is on record as 142.4 1 × 10^−6 cm/sec. The “Sol.” value in data set [1] worked out at 15.63 µg/mL. In data set [2], the “Metab. Stabil. (m)” value came to 17.76 m.
Consider `CC1=C(C(=O)NCc2cnn(C)c2C)C(c2ccc(C)cc2Cl)N=C(Nc2nc3ccc(F)cc3o2)N1` (centres unmarked) [Compound 124], for which the IC50 on recombinant human GALK1 (setting [5]) was 490 nM; on recombinant human GALK1 (setting [3]), 490 nM; on recombinant mouse GALK1 (setting [6]), 3.43 µM; on recombinant mouse GALK1 (setting [4]), 3.43 µM. For the same compound, in “PAMPA permeability”, the “Perm. (1 × 10^−6 cm/sec)” value is reported as 460.2 1 × 10^−6 cm/sec. Also, in data set [1], the “Sol.” value is under 1 µg/mL. Moreover, in data set [2], the “Metab. Stabil. (m)” value came out at 2.993 m.
Turning to `CC1=C(C(=O)NCc2cnn(C)c2)C(c2ccc(Cl)cc2Cl)N=C(Nc2nc3ccc(F)c(N)c3o2)N1` (centres unmarked) [Compound 127, 2-((7-amino-6-fluorobenzo[d]oxazol-2-yl)amino)-4-(2,4-dichlorophenyl)-6-methyl-N-((1-methyl-1H-pyrazol-4-yl)methyl)-1,4-dihydropyrimidine-5-carboxamide], the IC50 was determined as 220 nM on recombinant human GALK1 (setting [3]) and 1.93 µM at recombinant mouse GALK1 (setting [4]). The “Perm. (1 × 10^−6 cm/sec)” value in “PAMPA permeability” is given as 166.7 1 × 10^−6 cm/sec. Also, in data set [1], the “Sol.” value came out at 5.9 µg/mL. Besides, the “Metab. Stabil. (m)” value in data set [2] is listed as over 30 m.
On the same counts, the results for `CC1=C(C(=O)NCc2cnn(C)c2)C(c2ccc(C)cc2Cl)N=C(Nc2nc3ccc(F)c(C(=O)O)c3o2)N1` (centres unmarked) [Compound 128, 2-((4-(2-chloro-4-methylphenyl)-6-methyl-5-(((1-methyl-1H-pyrazol-4-yl)methyl)carbamoyl)-1,4-dihydropyrimidin-2-yl)amino)-6-fluorobenzo[d]oxazole-7-carboxylic acid] are 17200 nM, 21.7 µM, <1 1 × 10^−6 cm/sec, 26.3 µg/mL and over 30 m.
`CCn1nc(C)c(CNC(=O)C2=C(C)NC(Nc3nc4ccc(F)c(N)c4o3)=NC2c2ccc(C)cc2Cl)c1F` (centres unmarked) [Compound 129, 2-((7-amino-6-fluorobenzo[d]oxazol-2-yl)amino)-4-(2-chloro-4-methylphenyl)-N-((1-ethyl-5-fluoro-3-methyl-1H-pyrazol-4-yl)methyl)-6-methyl-1,4-dihydropyrimidine-5-carboxamide]: the IC50 on recombinant human GALK1 (setting [5]) came out at 430 nM; at recombinant human GALK1 (setting [3]) it was 430 nM; at recombinant mouse GALK1 (setting [6]), 2.17 µM; on recombinant mouse GALK1 (setting [4]), 2.17 µM. In addition, the “Perm. (1 × 10^−6 cm/sec)” value in “PAMPA permeability” is reported as 187.9 1 × 10^−6 cm/sec. In addition, the “Sol.” value in data set [1] came to 1.53 µg/mL. Besides, the “Metab. Stabil. (m)” value in data set [2] amounted to 3.55 m.
`CCn1cc(CNC(=O)C2=C(C)NC(Nc3nc4ccc(F)c(N)c4o3)=NC2c2ccc(Cl)cc2Cl)cn1` (centres unmarked) [Compound 130, 2-((7-amino-6-fluorobenzo[d]oxazol-2-yl)amino)-4-(2,4-dichlorophenyl)-N-((1-ethyl-1H-pyrazol-4-yl)methyl)-6-methyl-1,4-dihydropyrimidine-5-carboxamide]: the figures for the IC50 on recombinant human GALK1 (setting [3]) and at recombinant mouse GALK1 (setting [4]) were 270 nM and 1.93 µM, respectively. The “Perm. (1 × 10^−6 cm/sec)” value in the data set “PAMPA permeability” is listed as 380.3 1 × 10^−6 cm/sec. In data set [1], the “Sol.” value is under 1 µg/mL. In addition, the “Metab. Stabil. (m)” value in data set [2] is recorded as 6.787 m.
Consider `CC1=C(C(=O)NCc2cnn(CC(F)(F)F)c2)C(c2ccc(C)cc2Cl)N=C(Nc2nc3ccc(F)c(N)c3o2)N1` (centres unmarked) [Compound 131, 2-((7-amino-6-fluorobenzo[d]oxazol-2-yl)amino)-4-(2-chloro-4-methylphenyl)-6-methyl-N-((1-(2,2,2-trifluoroethyl)-1H-pyrazol-4-yl)methyl)-1,4-dihydropyrimidine-5-carboxamide], for which the IC50 came out at 190 nM at recombinant human GALK1 (setting [5]), 190 nM on recombinant human GALK1 (setting [3]), 3.06 µM at recombinant mouse GALK1 (setting [6]) and 3.06 µM on recombinant mouse GALK1 (setting [4]). Further, the “Perm. (1 × 10^−6 cm/sec)” value in the data set “PAMPA permeability” is 193.1 1 × 10^−6 cm/sec. Further, the “Sol.” value in data set [1] came out at 1.56 µg/mL. Also, the “Metab. Stabil. (m)” value in data set [2] is 18.69 m.
On to `CC1=C(C(=O)NCc2cnn(C(C)(C)C)c2)C(c2ccc(C)cc2Cl)N=C(Nc2nc3ccc(F)c(N)c3o2)N1` (centres unmarked) [Compound 132, 2-((7-amino-6-fluorobenzo[d]oxazol-2-yl)amino)-N-((1-(tert-butyl)-1H-pyrazol-4-yl)methyl)-4-(2-chloro-4-methylphenyl)-6-methyl-1,4-dihydropyrimidine-5-carboxamide], for which the IC50 on recombinant human GALK1 (setting [5]) was 770 nM; at recombinant human GALK1 (setting [3]) it was 770 nM; at recombinant mouse GALK1 (setting [6]), 4.32 µM; on recombinant mouse GALK1 (setting [4]), 4.32 µM. Also, in the data set “PAMPA permeability”, the “Perm. (1 × 10^−6 cm/sec)” value is 553.2 1 × 10^−6 cm/sec. Further, the “Sol.” value in data set [1] was under 1 µg/mL. Besides, the “Metab. Stabil. (m)” value in data set [2] was found to be 14.41 m.
In the case of `CCn1ncc(CNC(=O)C2=C(C)NC(Nc3nc4ccc(F)c(N)c4o3)=NC2c2ccc(C)cc2Cl)c1F` (centres unmarked) [Compound 133, 2-((7-amino-6-fluorobenzo[d]oxazol-2-yl)amino)-4-(2-chloro-4-methylphenyl)-N-((1-ethyl-5-fluoro-1H-pyrazol-4-yl)methyl)-6-methyl-1,4-dihydropyrimidine-5-carboxamide], the IC50 on recombinant human GALK1 (setting [5]) is 110 nM; on recombinant human GALK1 (setting [3]), 110 nM; at recombinant mouse GALK1 (setting [6]), 1.09 µM; on recombinant mouse GALK1 (setting [4]), 1.09 µM. Besides, the “Perm. (1 × 10^−6 cm/sec)” value in “PAMPA permeability” is reported as 427.4 1 × 10^−6 cm/sec. Further, the “Sol.” value in data set [1] is under 1 µg/mL. Moreover, the “Metab. Stabil. (m)” value in data set [2] was determined as 7.036 m.
Turning to `CCn1cc(CNC(=O)C2=C(C)NC(Nc3nc4ccc(F)c(N)c4o3)=N[C@@H]2c2ccc(C)cc2Cl)cn1` [Compound 134, (S)-2-((7-amino-6-fluorobenzo[d]oxazol-2-yl)amino)-4-(2-chloro-4-methylphenyl)-N-((1-ethyl-1H-pyrazol-4-yl)methyl)-6-methyl-1,4-dihydropyrimidine-5-carboxamide], the IC50 on recombinant human GALK1 (setting [3]) is 1530 nM; on recombinant mouse GALK1 (setting [4]) it was 10.9 µM. Moreover, the “Perm. (1 × 10^−6 cm/sec)” value in “PAMPA permeability” is 772.8 1 × 10^−6 cm/sec. Moreover, the “Sol.” value in data set [1] was under 1 µg/mL. In addition, in data set [2], the “Metab. Stabil. (m)” value is 8.619 m.
Take `CCn1cc(CNC(=O)C2=C(C)NC(Nc3nc4ccc(F)c(N)c4o3)=NC2c2ccccc2Cl)cn1` (centres unmarked) [Compound 136, 2-((7-amino-6-fluorobenzo[d]oxazol-2-yl)amino)-4-(2-chlorophenyl)-N-((1-ethyl-1H-pyrazol-4-yl)methyl)-6-methyl-1,4-dihydropyrimidine-5-carboxamide]: the IC50 on recombinant human GALK1 (setting [3]) came to 190 nM; at recombinant mouse GALK1 (setting [4]), 2.17 µM. For the same compound, the “Perm. (1 × 10^−6 cm/sec)” value in the data set “PAMPA permeability” is recorded as 133.5 1 × 10^−6 cm/sec. The “Sol.” value in data set [1] amounted to 23.87 µg/mL. In data set [2], the “Metab. Stabil. (m)” value was 17.72 m.
With `CC1=C(C(=O)Nc2ccccc2Cl)C(c2ccccc2Cl)N=C(Nc2nc3ccccc3o2)N1` (centres unmarked) [Compound 140, 2-(benzo[d]oxazol-2-ylamino)-N,4-bis(2-chlorophenyl)-6-methyl-1,4-dihydropyrimidine-5-carboxamide], on recombinant human GALK1 (setting [5]), the IC50 is 4320 nM. Further, on recombinant mouse GALK1 (Tables 2-15, 35 μM ATP, 100 μM galactose, 1 h, bracketed figure after some values is undefined and not reported), the “mGALK IC50” value is “inactive”. Moreover, at recombinant mouse GALK1 (recombinant mouse GALK1, Kinase-Glo Plus ATP depletion), the “mGALK (μM)” value is “in- active”. Moreover, the “Perm. (1 × 10^−6 cm/sec)” value in “PAMPA permeability” is reported as 56.0 1 × 10^−6 cm/sec. Also, the “Sol.” value in data set [1] is under 1 µg/mL. Further, the “Metab. Stabil. (m)” value in data set [2] is listed as 28.74 m.
As for `CC1=C(C(=O)Nc2ccc(Cl)cc2)C(c2ccccc2Cl)N=C(Nc2nc3ccccc3o2)N1` (centres unmarked) [Compound 141, 2-(benzo[d]oxazol-2-ylamino)-4-(2-chlorophenyl)-N-(4-chlorophenyl)-6-methyl-1,4-dihydropyrimidine-5-carboxamide], on recombinant human GALK1 (Tables 2-15, 35 μM ATP, 100 μM galactose, 1 h, bracketed figure after some values (e.g. −1.2) is undefined and not reported), the “hGALK IC50” value was “inactive”. Also, the “hGALK (μM)” value on recombinant human GALK1 (recombinant human GALK1, Kinase-Glo Plus ATP depletion) was “in- active”. The IC50 at recombinant mouse GALK1 (setting [6]) and at recombinant mouse GALK1 (setting [4]) was 7.69 µM throughout. In addition, the “Perm. (1 × 10^−6 cm/sec)” value in “PAMPA permeability” is 2.0 1 × 10^−6 cm/sec. Besides, the “Sol.” value in data set [1] was under 1 µg/mL. Also, the “Metab. Stabil. (m)” value in data set [2] is over 30 m.
For `CC1=C(C(=O)Nc2cccc(CO)c2)C(c2ccccc2Cl)N=C(Nc2nc3ccccc3o2)N1` (centres unmarked) [Compound 144, 2-(benzo[d]oxazol-2-ylamino)-4-(2-chlorophenyl)-N-(3-(hydroxymethyl)phenyl)-6-methyl-1,4-dihydropyrimidine-5-carboxamide], the IC50 stood at 3850 nM at recombinant human GALK1 (setting [3]), 9.68 µM on recombinant mouse GALK1 (setting [6]) and 9.68 µM at recombinant mouse GALK1 (setting [4]). The “Perm. (1 × 10^−6 cm/sec)” value in “PAMPA permeability” is 1124.1 1 × 10^−6 cm/sec. Further, the “Sol.” value in data set [1] is under 1 µg/mL. The “Metab. Stabil. (m)” value in data set [2] is given as over 30 m.
In the case of `CC1=C(C(=O)N2CCOCC2)C(c2ccccc2Cl)N=C(Nc2nc3ccccc3o2)N1` (centres unmarked) [Compound 145, (2-(benzo[d]oxazol-2-ylamino)-4-(2-chlorophenyl)-6-methyl-1,4-dihydropyrimidin-5-yl)(morpholino)methanone], the IC50 on recombinant human GALK1 (setting [3]) worked out at 24300 nM; on recombinant mouse GALK1 (setting [4]) it was 24.3 µM. Moreover, the “Perm. (1 × 10^−6 cm/sec)” value in “PAMPA permeability” is on record as 1046.7 1 × 10^−6 cm/sec. The “Sol.” value in data set [1] is 15.3 µg/mL. The “Metab. Stabil. (m)” value in data set [2] worked out at 2.1 m.
